Measurements taken from ChEMBL document CHEMBL4831526, “Cytotoxic Guaianolide Sesquiterpenoids from Ainsliaea fragrans” (J Nat Prod, 2021).

What was measured:
Assay type in all cases: functional, cell-based
[1] = Cytotoxicity against human HCCLM3 cells assessed as reduction in cell viability incubated for 72 hrs by Celltiter-Glo assay; details: HCCLM3, 72 h
[2] = system: HeLa; experiment: Cytotoxicity against human HeLa cells assessed as reduction in cell viability incubated for 72 hrs by Celltiter-Glo assay
[3] = system: Huh-7; experiment: Cytotoxicity against human Huh-7 cells assessed as reduction in cell viability incubated for 72 hrs by Celltiter-Glo assay; details: Huh-7, 72 h
[4] = system: C6; experiment: Cytotoxicity against rat C6 cells assessed as reduction in cell viability incubated for 72 hrs by Celltiter-Glo assay; details: C6, 72 h
[5] = system: PANC-1; experiment: Cytotoxicity against human PANC-1 cells assessed as reduction in cell viability incubated for 72 hrs by Celltiter-Glo assay; details: PANC-1, 72 h

With `C=C1C(=O)C2=C3[C@@H](CC[C@H]4C(=C)C(=O)O[C@@H]4[C@@H]13)CC[C@]21C(=O)C[C@H]2C(=C)CC[C@H]3C(=C)C(=O)O[C@@H]3[C@H]21` the IC50 [1] was greater than 10 µM, the IC50 [2] was greater than 10 µM and the IC50 [3] was greater than 10 µM. It also gave an IC50 [4] of 6.4 µM and an IC50 [5] greater than 10 µM.

With `C=C1C(=O)O[C@@H]2[C@@H]3C4=C(C(=O)[C@H]3C)[C@]3(CC[C@@]4(O)CC[C@@H]12)C(=O)C[C@H]1C(=C)CC[C@@H]2[C@H](OC(=O)[C@H]2C)[C@H]13` the IC50 [1] was greater than 10 µM, the IC50 [2] was 6.5 µM and the IC50 [3] was 4.1 µM. For the same molecule, the IC50 [4] was 3.1 µM and the IC50 [5] was 4.9 µM.

In the case of `C=C1C(=O)O[C@@H]2[C@@H]3C4=C(C(=O)[C@H]3CO)[C@]3(CC[C@]4(O)CC[C@@H]12)C(=O)C[C@H]1C(=C)CC[C@H]2C(=C)C(=O)O[C@@H]2[C@H]13`, the IC50 [1] is reported as greater than 10 µM, the IC50 [2] is reported as greater than 10 µM and the IC50 [3] is reported as greater than 10 µM. For the same molecule, the IC50 [4] was greater than 10 µM and the IC50 [5] was greater than 10 µM.

`C=C1C(=O)C2=C3[C@H]1[C@H]1OC(=O)C(CO)=C1CC[C@]3(O)CC[C@]21C(=O)C[C@H]2C(=C)CC[C@H]3C(=C)C(=O)O[C@@H]3[C@H]21` gave an IC50 [1] greater than 10 µM, an IC50 [2] greater than 10 µM and an IC50 [3] greater than 10 µM. The IC50 [4] was 9.9 µM and the IC50 [5] was greater than 10 µM.

In the case of `C=C1C(=O)C2=C3[C@H]1[C@H]1OC(=O)C(=C)[C@@H]1CC[C@]3(O)CC[C@]21C(=O)[C@H](C[C@@H]2C(=O)C[C@H]3C(=C)CC[C@H]4C(=C)C(=O)O[C@@H]4[C@@H]23)[C@H]2C(=C)CC[C@H]3C(=C)C(=O)O[C@@H]3[C@H]21`, the IC50 [1] is reported as 8.3 µM, the IC50 [2] is reported as 1.3 µM and the IC50 [3] is reported as 2.5 µM. The IC50 [4] was 0.7 µM and the IC50 [5] was 0.4 µM.

`C=C1C(=O)C2=C3[C@H](CC[C@H]4C(=C)C(=O)O[C@@H]4[C@@H]13)CC[C@]21C(=O)C[C@H]2C(=C)CC[C@H]3C(=C)C(=O)O[C@@H]3[C@H]21` gave an IC50 [1] greater than 10 µM, an IC50 [2] greater than 10 µM and an IC50 [3] greater than 10 µM. The IC50 [4] was greater than 10 µM and the IC50 [5] was greater than 10 µM.

`C=C1C(=O)C2=C3[C@H]1[C@H]1OC(=O)C(=C)[C@@H]1CC[C@@]3(O)CC[C@]21C(=O)C[C@H]2C(=C)CC[C@H]3C(=C)C(=O)O[C@@H]3[C@H]21` gave an IC50 [1] greater than 10 µM, an IC50 [2] greater than 10 µM and an IC50 [3] greater than 10 µM. The IC50 [4] was greater than 10 µM and the IC50 [5] was 5.4 µM.

Work on `C=C1C(=O)C2=C3[C@H](CC[C@H]4C(=C)C(=O)O[C@@H]4[C@@H]13)CC[C@@]21C(=O)C2=C3[C@H]1[C@H]1OC(=O)C(=C)[C@@H]1CC[C@@]3(O)CC[C@]21C(=O)C[C@H]2C(=C)CC[C@H]3C(=C)C(=O)O[C@@H]3[C@H]21` yielded an IC50 [1] greater than 10 µM, an IC50 [2] of 7 µM and an IC50 [3] of 7.5 µM. It also gave an IC50 [4] of 2.1 µM and an IC50 [5] of 2.5 µM.

In the case of `C=C1C(=O)C2=C3[C@H]1[C@H]1OC(=O)C(=C)[C@@H]1CC[C@]3(O)CC[C@]21C(=O)C[C@H]2C(=C)CC[C@H]3C(=C)C(=O)O[C@@H]3[C@H]21`, the IC50 [1] is reported as greater than 10 µM, the IC50 [2] is reported as 2.8 µM and the IC50 [3] is reported as 2.5 µM. The IC50 [4] was 1.2 µM and the IC50 [5] was 2.2 µM.

For `C=C1C(=O)O[C@@H]2[C@@H]3[C@@H](C[C@@]4(O)[C@]3(O)CC[C@]43C(=O)C[C@H]4C(=C)CC[C@H]5C(=C)C(=O)O[C@@H]5[C@H]43)C(=C)CC[C@@H]12`, the IC50 [1] was greater than 10 µM, the IC50 [2] was 5.3 µM and the IC50 [3] was 4.4 µM. For the same molecule, the IC50 [4] was 4.3 µM and the IC50 [5] was 9.9 µM.
